According to patent US20240116877A1, “KIT KINASE INHIBITORS AND METHODS OF USE THEREOF” (Deciphera Pharmaceuticals, LLC, priority 2021, published 2024):
Read-outs that look alike come from different tables or passages of the source.

Columns and labels:
c-KIT kinase (uKIT) = c-KIT kinase (uKIT) (Homo sapiens (Human), UniProt P10721); experiment: Biochemical Assay for uKIT (coupled pyruvate kinase/lactate dehydrogenase assay); conditions: Inhibition of biochemical activity of uKIT kinase; 1 mM ATP
c-KIT kinase (uKIT), sequence (P10721 other isoform, or with tags, fused parts or gaps): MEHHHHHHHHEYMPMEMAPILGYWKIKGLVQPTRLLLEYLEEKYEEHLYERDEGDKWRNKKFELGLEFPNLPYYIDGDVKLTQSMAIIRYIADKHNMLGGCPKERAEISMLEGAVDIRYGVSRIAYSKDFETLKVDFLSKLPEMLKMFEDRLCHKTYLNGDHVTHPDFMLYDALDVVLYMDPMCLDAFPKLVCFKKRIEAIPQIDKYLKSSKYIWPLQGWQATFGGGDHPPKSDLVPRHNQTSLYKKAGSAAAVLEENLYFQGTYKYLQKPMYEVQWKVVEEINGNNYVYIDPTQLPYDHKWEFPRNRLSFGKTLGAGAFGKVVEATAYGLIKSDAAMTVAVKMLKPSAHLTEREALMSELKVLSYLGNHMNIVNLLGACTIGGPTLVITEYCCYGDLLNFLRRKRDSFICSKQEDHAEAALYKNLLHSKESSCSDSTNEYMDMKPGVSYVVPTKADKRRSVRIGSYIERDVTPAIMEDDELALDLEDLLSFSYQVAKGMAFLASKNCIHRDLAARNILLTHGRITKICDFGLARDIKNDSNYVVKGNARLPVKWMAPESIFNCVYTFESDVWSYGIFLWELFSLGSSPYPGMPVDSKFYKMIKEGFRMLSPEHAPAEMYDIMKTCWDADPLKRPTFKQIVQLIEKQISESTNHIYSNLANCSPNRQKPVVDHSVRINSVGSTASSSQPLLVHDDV
Method: Biochemical Assay for uKIT
Activity of c-KIT kinase (SEQ. ID NO. 1 or SEQ. ID NO. 2) was determined spectroscopically using a coupled pyruvate kinase/lactate dehydrogenase assay that continuously monitors the ATP hydrolysis-dependent oxidation of NADH (e.g., Schindler et al. Science (2000) 289: 1938-1942). Assays were conducted in 384-well plates (100 μL final volume) using 16 nM (Decode, SEQ ID No. 1) or 4.36 nM (Signal Chem, SEQ. ID No. 2), 0.7 mg/mL PE4Y substrate, 1.5 units pyruvate kinase, 2.1 units lactate dehydrogenase, 1 mM phosphoenol pyruvate, 0.28 mM NADH and 1 mM ATP in assay buffer (100 mM Tris, pH 7.5, 15 mM MgCl2, 0.5 mM DTT, 0.1% octyl-glucoside, 0.002% (w/v) BSA, and 0.002% Triton X-100). Inhibition of KIT was measured by adding serial diluted test compound (final assay concentration of 1% DMSO). A decrease in absorption at 340 nm was monitored continuously for 6 h at 30° C. on a multi-mode microplate reader (BioTek). The reaction rate was calculated using the 2-3 h time frame. The reaction rate at each concentration of compound was converted to percent inhibition using controls (i.e., reaction with no test compound and reaction with a known inhibitor) and IC50 values were calculated using software routines in Prism (GraphPad software).

GIST 430 cells = experiment: GIST 430 Cell Proliferation Assay (resazurin); format: cell-based; conditions: Homo sapiens; GIST430 cell proliferation
Method: GIST 430 Cell Proliferation Assay
(§1) A serial dilution of test compound was dispensed into a 96-well black clear bottom plate (Corning, Corning, NY). Five thousand cells were added per well in 200 μL complete growth medium. Plates were incubated for 115 h at 37 degrees Celsius, 5% CO2, 95% humidity. At the end of the incubation period 40 μL of a 440 μM solution of resazurin (Sigma, St. Louis, MO) in PBS was added to each well and incubated for an additional 5 h at 37 degrees Celsius, 5% CO2, 95% humidity. Plates were read on a Synergy2 reader (Biotek, Winooski, VT) using an excitation of 540 nm and an emission of 600 nm. Data was analyzed using Prism software (Graphpad, San Diego, CA) to calculate IC50 values.

Ba/F3 KIT mutant cells = experiment: Ba/F3 mutant KIT Cell Proliferation Assays (resazurin); format: cell-based; conditions: Mus musculus, BaF3
Method: Ba/F3 KIT Mutant Cell Line Transduction and Expansion
Several different KIT cDNA encoding various primary and secondary mutations were cloned into a pLV(Exp]-CMV>(cDNA):IRES:puro vector. These vectors were constructed and packaged by VectorBuilder.
Exponentially grown Ba/F3 cells (1×10^6 cells in 1 ml medium) were infected with 60 μl of viral suspension in a 6-well plate in the presence of mIL-3 (10 ng/ml) and polybrene (7.5 μg/ml) (Vector Builder) and incubated for 16 h. After 16 h, the cells were centrifuged, and viral supernatant was discarded. The cells were then re-suspended in fresh medium and allowed to recover for another day. After 72 h post infection, the cells were seeded with complete medium with mIL-3 and with 1 μg/ml puromycin added to medium for selection. After 48 h, cells without viral infection die, whereas successfully transduced cells were collected and changed to fresh medium with 5 ng/ml of IL-3. After a week or two with gradual withdrawal of mIL3 the cells that can continue to proliferate in the absence of mIL3 were exponentially expanded and were frozen down for banking.
Ba/F3 mutant KIT Cell Proliferation Assays
as §1, with “a 384-well” for “a 96-well”, “NY). Six hundred and twenty-five” for “NY). Five thousand”, “in 50” for “in 200”, “for 68” for “for 115”, “at 37° C.,” for “at 37 degrees Celsius,”, “period 10” for “period 40”

[1] = Ba/F3 KIT AYdup mutant cell proliferation, read-out: AYdup IC50
[2] = Ba/F3 KIT AYdup-D816G mutant cell proliferation, read-out: AYdup-D816G IC50
[3] = Ba/F3 KIT AYdup-V654A mutant cell proliferation, read-out: AYdup-V654A IC50
[4] = Ba/F3 KIT exon11del-V654A mutant cell proliferation, read-out: exon11del-V654A IC50
[5] = Ba/F3 KIT exon11del-Y823D mutant cell proliferation, read-out: exon11del-Y823D IC50

Compound	IC50 (c-KIT kinase (uKIT)) [nM]	IC50 (GIST 430 cells) [nM]	IC50 (Ba/F3 KIT mutant cells; [1]) [nM]	IC50 (Ba/F3 KIT mutant cells; [2]) [nM]	IC50 (Ba/F3 KIT mutant cells; [3]) [nM]	IC50 (Ba/F3 KIT mutant cells; [4]) [nM]	IC50 (Ba/F3 KIT mutant cells; [5]) [nM]
COCCOc1cc(F)c2c(Nc3ccc(NC(=O)NCCC(C)(C)C(F)(F)F)cc3)ncnc2c1 [Example 1, 1-(4-((5-fluoro-7-(2-methoxyethoxy)quinazolin-4-yl)amino)phenyl)-3-(4,4,4-trifluoro-3,3-dimethylbutyl)urea]	≤ 10	≤ 10	–	–	–	–	–
COCCOc1cc(F)c2c(Nc3ccc(NC(=O)NCCC(C)(C)F)cc3)ncnc2c1 [Example 2, 1-(3-fluoro-3-methylbutyl)-3-(4-((5-fluoro-7-(2-methoxyethoxy)quinazolin-4-yl)amino)phenyl)urea]	≤ 10	10 to 100	≤ 10	10 to 100	10 to 100	10 to 100	100 to 1000
COCCOc1cc(F)c2c(Nc3ccc(NC(=O)CCC(C)(C)C)cc3)ncnc2c1 [Example 3, N-(4-((5-fluoro-7-(2-methoxyethoxy)quinazolin-4-yl)amino)phenyl)-4,4-dimethylpentanamide]	10 to 100	100 to 1000	–	–	–	–	–
COCCOc1cc(F)c2c(Nc3ccc(NC(=O)CC(=O)NCC(C)(C)C)cc3)ncnc2c1 [Example 4, N1-(4-((5-fluoro-7-(2-methoxyethoxy)quinazolin-4-yl)amino)phenyl)-N3-neopentylmalonamide]	10 to 100	≤ 10	10 to 100	10 to 100	10 to 100	10 to 100	10 to 100
COCCOc1cc(F)c2c(Nc3ccc(NC(=O)CC(=O)NCC(C)(C)OC)cc3)ncnc2c1 [Example 5, N^1-(4-((5-fluoro-7-(2-methoxyethoxy)quinazolin-4-yl)amino)phenyl)-N^3-(2-methoxy-2-methylpropyl)malonamide]	10 to 100	10 to 100	–	–	10 to 100	10 to 100	> 1000
CC(C)Oc1cc(F)c2c(Nc3ccc(NC(=O)NCCC(C)(C)F)cc3)ncnc2c1 [Example 6, 1-(3-fluoro-3-methylbutyl)-3-(4-((5-fluoro-7-isopropoxyquinazolin-4-yl)amino)phenyl)urea]	≤ 10	10 to 100	–	–	100 to 1000	≤ 10	100 to 1000
CO[C@@H](C)COc1cc(F)c2c(Nc3ccc(NC(=O)NCCC(C)(C)F)cc3)ncnc2c1 [Example 7, (S)-1-(3-fluoro-3-methylbutyl)-3-(4-((5-fluoro-7-(2-methoxypropoxy)quinazolin-4-yl)amino)phenyl)urea]	≤ 10	10 to 100	–	–	10 to 100	10 to 100	10 to 100
COCCOc1cc(F)c2c(Nc3ccc(NC(=O)NC4CC(C)(C)C4)cc3)ncnc2c1 [Example 8]	≤ 10	10 to 100	≤ 10	10 to 100	10 to 100	10 to 100	100 to 1000
COCCOc1cc(F)c2c(Nc3ccc(NC(=O)NCCC(C)(C)C)cc3)ncnc2c1 [Example 9]	≤ 10	≤ 10	≤ 10	≤ 10	≤ 10	≤ 10	10 to 100
COCCOc1cc(F)c2c(Nc3ccc(NC(=O)NCCC(C)(C)OC)cc3)ncnc2c1 [Example 10]	≤ 10	≤ 10	≤ 10	≤ 10	10 to 100	≤ 10	10 to 100
COCCOc1cc(F)c2c(Nc3ccc(NC(=O)NCC4COC4)cc3)ncnc2c1 [Example 11]	10 to 100	100 to 1000	–	–	–	–	–
COCCOc1cc(F)c2c(Nc3ccc(NC(=O)NC4CCOCC4)cc3)ncnc2c1 [Example 12]	10 to 100	100 to 1000	–	–	–	–	–
COCCOc1cc(F)c2c(Nc3ccc(NC(=O)NCC4CCOCC4)cc3)ncnc2c1 [Example 13]	10 to 100	10 to 100	–	–	–	–	–
COCCOc1cc(F)c2c(Nc3ccc(NC(=O)N[C@@H]4CCOC4)cc3)ncnc2c1 [Example 14]	10 to 100	100 to 1000	–	–	–	–	–
COCCOc1cc(F)c2c(Nc3ccc(NC(=O)NC4CCC(C(F)(F)F)CC4)cc3)ncnc2c1 (centres unmarked) [Example 15]	≤ 10	10 to 100	–	10 to 100	10 to 100	10 to 100	100 to 1000
COCCOc1cc(F)c2c(Nc3ccc(NC(=O)NCCC4(C(F)(F)F)CC4)cc3)ncnc2c1 [Example 17]	≤ 10	≤ 10	–	–	–	–	–
COCCOc1cc(F)c2c(Nc3ccc(NC(=O)NCCC4CCCC4)cc3)ncnc2c1 [Example 21]	≤ 10	≤ 10	–	–	–	–	–
COCCOc1cc(F)c2c(Nc3ccc(NC(=O)NCCC4CC(F)(F)C4)cc3)ncnc2c1 [Example 22]	≤ 10	≤ 10	–	–	–	–	–
COCCOc1cc(F)c2c(Nc3ccc(NC(=O)CCC(C)(C)F)cc3)ncnc2c1 [Example 23]	100 to 1000	100 to 1000	–	–	–	–	–
COCCOc1cc(F)c2c(Nc3ccc(NC(=O)NCCC(C)(C)OC)nc3)ncnc2c1 [Example 24]	100 to 1000	100 to 1000	–	–	–	–	–
CC(C)(F)CCNC(=O)Nc1ccc(Nc2ncnc3cc(O[C@H]4CCOC4)cc(F)c23)cc1 [Example 160]	–	10 to 100	≤ 10	10 to 100	10 to 100	10 to 100	10 to 100
CC(C)(F)CCNC(=O)Nc1ccc(Nc2ncnc3cc(O[C@@H]4CCOC4)cc(F)c23)cc1 [Example 180]	–	> 1000	–	–	> 1000	> 1000	100 to 1000
COCCOc1ccc2c(Nc3ccc(NC(=O)CC(=O)NCC(C)(C)C)cc3)ncnc2c1 [Example 221]	10 to 100	–	–	–	10 to 100	100 to 1000	100 to 1000
